{
  "source": "patent US11993600B2",
  "about": "“Saturated spirocyclics as antiviral agents” (ENANTA PHARMACEUTICALS, INC., priority 2021, dated 2024)",
  "molecular_target": "SARS-CoV-2 3CL-protease (Severe acute respiratory syndrome coronavirus 2 (2019-nCoV) (SARS-CoV-2), UniProt P0DTD1)",
  "experiment": "SARS-CoV-2 3C-like (3CL) protease fluorescence assay (FRET)",
  "assay_type": "biochemical",
  "details": "recombinant SARS-CoV-2 3CL-protease 10 nM, 30 min preincubation at RT, substrate 40 μM, run in duplicate",
  "data": [
    {"smiles": "CN(C(=O)c1cc2c(F)cc(F)cc2[nH]1)[C@@H](CC(C)(C)F)C(=O)N1C[C@]2(CCNC2=O)C[C@H]1C#N", "note": "[Compound 1, N—((S)-1-((3S,5S)-3-cyano-6-oxo-2,7-diazaspiro[4.4]nonan-2-yl)-4-fluoro-4-methyl-1-oxopentan-2-yl)-4,6-difluoro-N-methyl-1H-indole-2-carboxamide]", "values": [
      {"measurement": "IC50", "result": "< 100", "unit": "nM"}
    ]},
    {"smiles": "CC(C)C[C@@H](C(=O)N1C[C@]2(CCCNC2=O)C[C@H]1C#N)N(C)C(=O)c1cc2c(F)cc(F)cc2[nH]1", "note": "[Compound 2, N—((S)-1-((3S,5S)-3-cyano-6-oxo-2,7-diazaspiro[4.5]decan-2-yl)-4-methyl-1-oxopentan-2-yl)-4,6-difluoro-N-methyl-1H-indole-2-carboxamide]", "values": [
      {"measurement": "IC50", "result": "< 100", "unit": "nM"}
    ]},
    {"smiles": "CN(C(=O)c1cc2c(F)cc(F)cc2[nH]1)[C@@H](CC(C)(C)F)C(=O)N1C[C@]2(CCCNC2=O)C[C@H]1C#N", "note": "[Compound 3, N—((S)-1-((3S,5S)-3-cyano-6-oxo-2,7-diazaspiro[4.5]decan-2-yl)-4-fluoro-4-methyl-1-oxopentan-2-yl)-4,6-difluoro-N-methyl-1H-indole-2-carboxamide]", "values": [
      {"measurement": "IC50", "result": "< 100", "unit": "nM"}
    ]},
    {"smiles": "CC(C)C[C@@H](C(=O)N1C[C@]2(CCC3(CC3)NC2=O)C[C@H]1C#N)N(C)C(=O)c1cc2c(F)cc(F)cc2[nH]1", "note": "[Compound 4, N—((S)-1-((6S,9S)-9-cyano-5-oxo-4,8-diazadispiro[2.2.4^6.2^3]dodecan-8-yl)-4-methyl-1-oxopentan-2-yl)-4,6-difluoro-N-methyl-1H-indole-2-carboxamide]", "values": [
      {"measurement": "IC50", "result": "< 100", "unit": "nM"}
    ]}
  ]
}
